The target of experiment [1] is Tyrosine-protein kinase CSK (Homo sapiens) (UniProt P41240). The experiment can be described thus: Selectivity interaction (ProQinase) EUB0000171b CSK.
Experiment [2] deals with T1, cAMP-dependent protein kinase catalytic subunit PRKX (Homo sapiens) (UniProt P51817).
T1 sequence (whole entry): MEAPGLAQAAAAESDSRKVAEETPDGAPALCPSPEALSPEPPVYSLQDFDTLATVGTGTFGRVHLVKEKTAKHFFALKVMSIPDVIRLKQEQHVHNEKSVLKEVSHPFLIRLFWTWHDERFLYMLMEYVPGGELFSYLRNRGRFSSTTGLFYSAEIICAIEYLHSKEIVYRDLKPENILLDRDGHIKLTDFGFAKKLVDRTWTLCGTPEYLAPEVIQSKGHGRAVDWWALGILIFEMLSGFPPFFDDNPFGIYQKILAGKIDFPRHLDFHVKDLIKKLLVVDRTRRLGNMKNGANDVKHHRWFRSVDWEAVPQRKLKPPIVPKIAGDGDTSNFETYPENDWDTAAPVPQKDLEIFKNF
The experiment can be described thus: Selectivity interaction (ProQinase) EUB0000171b PRKX.

Experiment [3] concerns the target Dual specificity tyrosine-phosphorylation-regulated kinase 1A (Homo sapiens, UniProt Q13627). Briefly: Selectivity interaction (Kinase panel (DSF assay)) EUB0001558a DYRK1A. Background: Differential scanning fluorimetry follows unfolding on heating by fluorescence.
For experiment [4], the target named is BDNF/NT-3 growth factors receptor (Homo sapiens) (UniProt Q16620). Briefly: Selectivity interaction (KinaseProfiler screening (Millipore)) EUB0000601a NTRK2. The note with it: at 3 µM.
For experiment [5], the target named is Receptor tyrosine-protein kinase erbB-4 (Homo sapiens, UniProt Q15303). Briefly: Selectivity interaction (KinomeScan (DiscoverX)) EUB0000045b ERBB4.
Experiment [6] has as its target T2, Phosphatidylinositol 5-phosphate 4-kinase type-2 beta (Homo sapiens) (UniProt P78356).
T2 sequence (whole entry): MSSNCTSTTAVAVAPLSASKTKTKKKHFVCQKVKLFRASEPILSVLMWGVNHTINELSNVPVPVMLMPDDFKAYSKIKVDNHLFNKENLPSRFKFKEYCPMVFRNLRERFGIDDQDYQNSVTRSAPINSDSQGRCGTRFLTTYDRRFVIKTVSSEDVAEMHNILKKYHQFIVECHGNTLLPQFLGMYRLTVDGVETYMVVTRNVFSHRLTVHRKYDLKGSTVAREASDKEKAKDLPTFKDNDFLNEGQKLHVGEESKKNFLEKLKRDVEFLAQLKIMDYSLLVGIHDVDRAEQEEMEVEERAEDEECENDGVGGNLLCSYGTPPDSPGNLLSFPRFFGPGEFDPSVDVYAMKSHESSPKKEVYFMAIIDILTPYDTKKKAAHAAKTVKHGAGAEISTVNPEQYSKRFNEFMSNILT
Briefly: Selectivity interaction (KinomeScan (DiscoverX)) EUB0000607a PIP4K2B. The note with it: at 10 µM.

The target in experiment [7] is T3, Serine/threonine-protein kinase Nek9 (Homo sapiens) (UniProt Q8TD19).
T3 sequence (whole entry): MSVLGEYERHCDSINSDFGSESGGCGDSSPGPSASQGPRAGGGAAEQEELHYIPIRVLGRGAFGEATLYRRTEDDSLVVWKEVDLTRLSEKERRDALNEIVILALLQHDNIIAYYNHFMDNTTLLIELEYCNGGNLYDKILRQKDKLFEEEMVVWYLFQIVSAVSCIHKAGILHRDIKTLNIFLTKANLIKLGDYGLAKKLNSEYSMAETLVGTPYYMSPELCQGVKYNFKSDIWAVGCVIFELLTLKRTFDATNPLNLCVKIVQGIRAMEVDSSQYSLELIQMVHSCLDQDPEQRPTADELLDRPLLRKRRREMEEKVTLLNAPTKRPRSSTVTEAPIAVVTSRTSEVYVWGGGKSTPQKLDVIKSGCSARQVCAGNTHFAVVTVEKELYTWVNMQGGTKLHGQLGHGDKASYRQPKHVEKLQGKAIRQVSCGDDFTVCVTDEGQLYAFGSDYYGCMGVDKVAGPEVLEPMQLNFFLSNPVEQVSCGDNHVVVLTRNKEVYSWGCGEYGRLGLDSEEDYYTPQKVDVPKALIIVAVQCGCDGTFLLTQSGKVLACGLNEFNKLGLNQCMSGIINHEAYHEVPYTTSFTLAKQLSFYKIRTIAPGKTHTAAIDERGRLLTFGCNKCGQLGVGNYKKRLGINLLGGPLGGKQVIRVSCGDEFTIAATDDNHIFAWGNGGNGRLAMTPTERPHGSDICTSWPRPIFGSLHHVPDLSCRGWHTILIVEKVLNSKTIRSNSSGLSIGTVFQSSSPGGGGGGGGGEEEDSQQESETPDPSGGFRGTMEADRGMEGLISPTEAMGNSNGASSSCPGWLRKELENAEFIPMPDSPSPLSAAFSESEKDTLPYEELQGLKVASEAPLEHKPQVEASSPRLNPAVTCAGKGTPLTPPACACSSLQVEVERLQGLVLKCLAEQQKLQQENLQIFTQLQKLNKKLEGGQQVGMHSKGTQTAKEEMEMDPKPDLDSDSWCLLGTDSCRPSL
The experiment can be described thus: Selectivity interaction (KinomeScan (DiscoverX)) EUB0000607a NEK9. The conditions noted are these: at 10 µM.

For experiment [8], the target named is Mitogen-activated protein kinase 6 (Homo sapiens) (UniProt Q16659). Briefly: Selectivity interaction (KinomeScan (DiscoverX)) EUB0000229b MAPK6. The note with it: at 10 µM.
The target in experiment [9] is Mitogen-activated protein kinase kinase kinase 9 (Homo sapiens) (UniProt P80192). Briefly: Selectivity interaction (KinomeScan (DiscoverX)) EUB0000595a MAP3K9. The note with it: at 10 µM.
Experiment [10] relates to Epidermal growth factor receptor (Homo sapiens), P00533 [UNDEFINED MUTATION]. Briefly: Selectivity interaction (KinomeScan (DiscoverX)) EUB0000618a EGFR. The conditions noted are these: at 10 µM.
Epidermal growth factor receptor (Homo sapiens), P00533 [UNDEFINED MUTATION], sequence (P00533 whole entry, looked up, change not shown): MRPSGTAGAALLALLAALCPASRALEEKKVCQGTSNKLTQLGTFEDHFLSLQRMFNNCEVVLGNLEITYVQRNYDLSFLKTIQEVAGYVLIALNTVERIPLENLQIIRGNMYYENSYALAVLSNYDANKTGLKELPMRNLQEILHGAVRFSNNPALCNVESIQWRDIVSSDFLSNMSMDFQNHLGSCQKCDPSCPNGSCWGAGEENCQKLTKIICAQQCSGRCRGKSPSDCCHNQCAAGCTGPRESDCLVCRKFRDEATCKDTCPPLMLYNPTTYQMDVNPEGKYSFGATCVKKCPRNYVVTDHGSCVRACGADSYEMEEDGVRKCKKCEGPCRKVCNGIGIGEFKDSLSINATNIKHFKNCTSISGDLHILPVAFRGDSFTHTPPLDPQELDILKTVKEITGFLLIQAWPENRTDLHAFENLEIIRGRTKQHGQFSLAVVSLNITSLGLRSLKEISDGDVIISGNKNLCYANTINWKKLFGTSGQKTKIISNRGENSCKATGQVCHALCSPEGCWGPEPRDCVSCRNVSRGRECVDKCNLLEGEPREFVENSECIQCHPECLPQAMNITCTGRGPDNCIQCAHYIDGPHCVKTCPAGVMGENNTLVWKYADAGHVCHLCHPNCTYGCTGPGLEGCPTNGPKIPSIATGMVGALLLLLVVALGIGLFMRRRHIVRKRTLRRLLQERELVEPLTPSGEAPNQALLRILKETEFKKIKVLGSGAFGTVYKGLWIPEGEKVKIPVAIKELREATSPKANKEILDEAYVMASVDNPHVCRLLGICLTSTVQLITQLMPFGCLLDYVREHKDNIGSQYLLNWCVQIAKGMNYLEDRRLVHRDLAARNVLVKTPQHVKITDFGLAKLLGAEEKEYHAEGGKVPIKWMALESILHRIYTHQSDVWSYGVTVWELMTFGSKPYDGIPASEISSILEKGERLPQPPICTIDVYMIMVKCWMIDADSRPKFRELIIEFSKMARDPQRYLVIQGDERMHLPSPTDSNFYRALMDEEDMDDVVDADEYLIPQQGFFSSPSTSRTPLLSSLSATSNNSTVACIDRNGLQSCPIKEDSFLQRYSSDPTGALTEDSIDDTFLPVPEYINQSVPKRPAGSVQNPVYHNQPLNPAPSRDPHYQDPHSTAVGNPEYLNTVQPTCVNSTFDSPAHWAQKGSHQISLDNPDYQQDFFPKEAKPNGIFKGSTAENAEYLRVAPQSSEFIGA

Tyrosine-protein kinase CSK (Homo sapiens), sequence (P41240 2-450 limits assumed): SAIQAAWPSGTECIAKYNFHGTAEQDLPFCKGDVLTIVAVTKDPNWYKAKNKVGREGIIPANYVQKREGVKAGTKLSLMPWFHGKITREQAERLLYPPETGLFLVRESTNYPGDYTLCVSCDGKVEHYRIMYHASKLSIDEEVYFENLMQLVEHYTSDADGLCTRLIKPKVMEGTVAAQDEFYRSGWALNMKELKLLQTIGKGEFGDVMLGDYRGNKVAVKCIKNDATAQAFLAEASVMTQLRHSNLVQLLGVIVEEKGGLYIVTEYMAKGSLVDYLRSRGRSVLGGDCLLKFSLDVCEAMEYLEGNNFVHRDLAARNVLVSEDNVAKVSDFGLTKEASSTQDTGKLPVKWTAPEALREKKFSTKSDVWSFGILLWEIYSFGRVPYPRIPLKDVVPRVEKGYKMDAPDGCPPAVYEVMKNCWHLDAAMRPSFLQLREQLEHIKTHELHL
Receptor tyrosine-protein kinase erbB-4, sequence (Q15303 whole entry): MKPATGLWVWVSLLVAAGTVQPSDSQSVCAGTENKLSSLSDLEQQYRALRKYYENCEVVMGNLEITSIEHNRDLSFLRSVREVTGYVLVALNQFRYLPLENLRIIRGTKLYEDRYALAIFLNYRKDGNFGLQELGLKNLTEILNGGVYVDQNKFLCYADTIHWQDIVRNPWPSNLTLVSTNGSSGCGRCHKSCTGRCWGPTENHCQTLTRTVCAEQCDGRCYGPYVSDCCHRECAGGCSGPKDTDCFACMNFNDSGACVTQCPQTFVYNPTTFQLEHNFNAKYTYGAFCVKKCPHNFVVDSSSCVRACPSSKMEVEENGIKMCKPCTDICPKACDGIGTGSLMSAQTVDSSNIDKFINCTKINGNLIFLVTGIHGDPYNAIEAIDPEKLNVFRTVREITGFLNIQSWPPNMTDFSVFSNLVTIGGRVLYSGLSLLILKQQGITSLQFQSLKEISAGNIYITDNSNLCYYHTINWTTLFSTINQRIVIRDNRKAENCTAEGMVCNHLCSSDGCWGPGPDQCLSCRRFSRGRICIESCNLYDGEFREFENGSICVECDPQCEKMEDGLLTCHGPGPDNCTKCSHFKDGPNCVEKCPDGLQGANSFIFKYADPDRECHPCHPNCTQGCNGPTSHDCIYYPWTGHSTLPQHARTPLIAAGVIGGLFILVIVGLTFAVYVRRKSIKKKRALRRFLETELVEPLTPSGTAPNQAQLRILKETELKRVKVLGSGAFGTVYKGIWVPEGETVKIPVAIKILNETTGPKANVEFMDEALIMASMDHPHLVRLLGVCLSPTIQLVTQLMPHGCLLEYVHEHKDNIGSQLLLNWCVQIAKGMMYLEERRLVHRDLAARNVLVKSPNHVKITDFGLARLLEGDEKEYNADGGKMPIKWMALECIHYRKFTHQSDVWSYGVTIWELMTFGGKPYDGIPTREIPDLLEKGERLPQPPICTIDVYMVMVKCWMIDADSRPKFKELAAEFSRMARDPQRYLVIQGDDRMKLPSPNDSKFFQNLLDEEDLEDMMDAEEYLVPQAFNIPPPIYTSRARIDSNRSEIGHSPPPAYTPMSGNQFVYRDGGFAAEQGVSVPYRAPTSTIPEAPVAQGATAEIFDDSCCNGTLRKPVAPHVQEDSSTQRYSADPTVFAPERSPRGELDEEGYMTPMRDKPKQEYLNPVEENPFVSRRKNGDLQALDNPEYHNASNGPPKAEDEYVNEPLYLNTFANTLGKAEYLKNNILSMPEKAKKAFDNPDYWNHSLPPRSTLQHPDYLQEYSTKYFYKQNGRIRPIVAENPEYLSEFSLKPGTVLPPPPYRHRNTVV
Mitogen-activated protein kinase kinase kinase 9 (Homo sapiens), sequence (P80192 whole entry, looked up): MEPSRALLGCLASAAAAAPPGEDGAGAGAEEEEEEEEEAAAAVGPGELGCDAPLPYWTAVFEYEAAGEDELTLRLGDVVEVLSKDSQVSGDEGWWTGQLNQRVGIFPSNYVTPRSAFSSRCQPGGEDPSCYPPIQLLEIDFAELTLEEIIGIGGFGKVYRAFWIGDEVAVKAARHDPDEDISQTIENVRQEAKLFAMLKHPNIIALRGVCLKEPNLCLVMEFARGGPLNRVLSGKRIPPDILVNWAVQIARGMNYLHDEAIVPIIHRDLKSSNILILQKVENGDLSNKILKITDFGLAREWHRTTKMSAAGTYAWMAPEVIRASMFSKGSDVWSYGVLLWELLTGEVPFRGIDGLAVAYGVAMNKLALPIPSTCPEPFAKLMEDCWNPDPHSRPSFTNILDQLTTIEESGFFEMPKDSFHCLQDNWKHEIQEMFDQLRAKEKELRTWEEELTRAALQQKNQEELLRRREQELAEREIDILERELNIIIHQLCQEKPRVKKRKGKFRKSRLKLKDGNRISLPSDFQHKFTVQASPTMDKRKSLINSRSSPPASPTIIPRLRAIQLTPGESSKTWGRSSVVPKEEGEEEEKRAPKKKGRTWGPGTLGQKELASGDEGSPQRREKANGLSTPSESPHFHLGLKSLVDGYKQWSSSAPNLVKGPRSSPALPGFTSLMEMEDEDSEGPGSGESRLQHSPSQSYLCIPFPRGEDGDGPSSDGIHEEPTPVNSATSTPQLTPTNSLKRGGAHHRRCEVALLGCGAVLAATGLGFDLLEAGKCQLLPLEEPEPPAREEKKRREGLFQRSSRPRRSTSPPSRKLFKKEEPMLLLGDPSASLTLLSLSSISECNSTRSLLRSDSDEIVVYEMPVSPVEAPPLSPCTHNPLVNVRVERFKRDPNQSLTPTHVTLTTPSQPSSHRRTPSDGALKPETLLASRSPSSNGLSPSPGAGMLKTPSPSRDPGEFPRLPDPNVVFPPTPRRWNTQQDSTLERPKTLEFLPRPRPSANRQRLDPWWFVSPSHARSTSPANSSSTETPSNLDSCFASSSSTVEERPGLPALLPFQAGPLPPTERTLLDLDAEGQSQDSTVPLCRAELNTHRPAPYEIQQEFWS
BDNF/NT-3 growth factors receptor (Homo sapiens), sequence (Q16620 32-822 limits assumed): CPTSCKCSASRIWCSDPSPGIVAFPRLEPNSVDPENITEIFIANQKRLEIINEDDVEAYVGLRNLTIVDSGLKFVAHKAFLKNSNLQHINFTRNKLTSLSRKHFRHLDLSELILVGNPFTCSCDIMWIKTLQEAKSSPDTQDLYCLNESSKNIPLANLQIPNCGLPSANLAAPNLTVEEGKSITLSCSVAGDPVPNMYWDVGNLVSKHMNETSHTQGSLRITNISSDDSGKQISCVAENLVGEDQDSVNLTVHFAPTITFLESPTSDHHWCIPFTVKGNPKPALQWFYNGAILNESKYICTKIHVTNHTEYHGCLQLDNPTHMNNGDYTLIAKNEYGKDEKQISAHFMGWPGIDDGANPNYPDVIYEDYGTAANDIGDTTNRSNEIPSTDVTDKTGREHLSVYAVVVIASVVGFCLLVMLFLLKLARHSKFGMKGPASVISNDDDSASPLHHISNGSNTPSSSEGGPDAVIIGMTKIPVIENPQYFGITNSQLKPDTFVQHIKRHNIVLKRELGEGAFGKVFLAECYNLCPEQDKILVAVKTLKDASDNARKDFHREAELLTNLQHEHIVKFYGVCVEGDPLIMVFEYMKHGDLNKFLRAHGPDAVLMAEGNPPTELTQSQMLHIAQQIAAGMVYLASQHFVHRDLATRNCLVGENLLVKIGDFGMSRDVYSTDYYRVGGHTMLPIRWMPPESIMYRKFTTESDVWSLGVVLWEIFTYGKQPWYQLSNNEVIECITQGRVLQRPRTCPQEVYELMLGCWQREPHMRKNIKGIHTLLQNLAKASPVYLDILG

`C=CC(=O)Nc1cccc(C(=O)Nc2ccc(Nc3cc(-c4[nH]c(SC)nc4C)ccn3)cc2)c1`: the % of control in experiment [1] (at 1 µM) came to 87%; in experiment [1] (at 5 µM), 81%; in experiment [2] (at 1 µM), 86%; in [2] (at 5 µM), 61%.
In [3], `CC(C)(O)[C@H](F)CN1Cc2cc(NC(=O)c3cnn4cccnc34)c(N3CCOCC3)cc2C1=O` had a dTM of 0.2 K.
Compound `CCc1cc(Nc2nccc(-c3c(-c4ccc(OC)c(C(=O)Nc5c(F)cccc5F)c4)nc4ccccn34)n2)c(OC)cc1N1CCC(N2CCN(S(C)(=O)=O)CC2)CC1` returned a % of inhibition in experiment [4] of 47%.
As to `C=CC(=O)Nc1cc(-n2c(=O)ccc3cnc4ccc(-c5ccc(NS(C)(=O)=O)cc5)cc4c32)ccc1C`, the % of control amounted to 78% in experiment [5] (at 1 µM) and 18% in [5] (at 10 µM).
With `CNC(=O)Nc1ccc(-c2nc(N3CC4CCC(C3)O4)c3cnn(C4CCC5(CC4)OCCO5)c3n2)cc1`, the % of control in [6] and in [7] was 100% in each case.
As for `COc1cc(N(C)c2ccnc3ccc(C(F)(F)F)cc23)cc(OC)c1OC`, the % binding in experiment [8] was found to be 100%.
`COCC(=O)NC/C=C/c1ccc2ncnc(Nc3ccc(Oc4ccc(C)nc4)c(C)c3)c2c1` [CP-724714]: the % of control in [9] was 74%.
As to `O[C@H]1CC[C@H](Nc2ncc3nc(Nc4c(F)cc(F)cc4F)n([C@H]4CCOC4)c3n2)CC1`, the % of control in experiment [10] worked out at 9.4%.

The values are drawn from ChEMBL document CHEMBL5465560, “Selectivity Literature for EUbOPEN Chemogenomic Library” (2024).
